Laboratory results as given in US8207212B2, “Methods and devices for epithelial protection during photodynamic therapy” (The General Hospital Corporation, priority 2003, dated 2012).

Legend:
[1] = system: rat epidermal keratinocyte (REK) cells; test: PpIX formation in rat epidermal keratinocyte cells incubated with ALA at different temperatures; type: cell-based; details: 0.5 mM ALA, after three hours (FIG. 2)
Description: Two trials of rat epidermal keratinocyte (REK) cells were incubated with 0.5 mM ALA at temperatures of 21° C. and 37° C., respectively, for varying times. […] Accordingly, a temperature gradient of about 16° C. is more than sufficient to inhibit metabolism of a photosensitizing agent in epidermal tissue surrounding a targeted treatment site.
Several trials of rat epidermal keratinocyte (REK) cells were incubated with various amounts of ALA ranging from 0.1 mM to 0.5 mM, at various temperatures ranging from 15° C. to 40° C.

[2] = system: rat epidermal keratinocyte (REK) cells; test: Effect of DOHA pre-incubation on ALA-induced PpIX formation in REK cells; type: cell-based; details: washed, then 0.25 mM ALA for 3 hours (FIG. 4)
Description: Several trials of rat epidermal keratinocyte (REK) cells were pre-incubated with various amounts of 4-dioxoheptanoic acid (DOHA) ranging from 1^−8 M to 1^−4 M. The cells were then washed, and incubated with 0.25 mM ALA for 3 hours.

[3] = system: human skin; test: PpIX fluorescence imaging in human skin after topical DOHA followed by topical ALA; details: human skin in vivo, DOHA topical 0.1%, 0.3%, 1% for 1 hour, followed by topical 5% ALA (FIG. 6)
Description: DOHA was topically applied to human skin in concentrations of (a) 0.1%, (b) 0.3%, and (c) 1% for 1 hour, followed by topical application of 5% ALA. PpIX fluorescence was then imaged.

In the case of NCC(=O)CCC(=O)O [ALA, aminolevulinic acid], the PpIX concentration ([1]; 21° C.) is reported as “less than 50 pmol/10^6” and the PpIX concentration ([1]; 37° C.) is reported as “greater than 400 pmol/10^6”.

CC(=O)CC(=O)CCC(=O)O [DOHA, 4-dioxoheptanoic acid] was tested, and the PpIX formation ([2]; REK cells pre-incubated with DOHA at concentrations greater than 10^−5 M) was “even further chemical inhibition”, the PpIX formation ([2]; REK cells pre-incubated with DOHA at concentrations greater than 10^−7 M) was “significantly inhibited” and the “PpIX formation (fluorescence)” value [3] was “effective to chemically inhibit PpIX formation”.
